Patent US11331327B2, “Antibacterial use of halogenated salicylanilides” (UNION therapeutics A/S, priority 2014, dated 2022)
Values after ≈ are worked out from the molar mass of the structure shown. Read-outs that look alike come from different tables or passages of the source.

Tested on: S. aureus clinical isolates and S. aureus ATCC 29213
Test: MIC assay according to CLSI criteria, Example 2, S. aureus strains
Assay type: cell-based, Staphylococcus aureus
Conditions: Staphylococcus aureus, read-out: MIC
Experimental: Strains were conserved in Luria Bertani (LB) Broth (S. aureus) or Brain Heart Infusion (BHI) (S. pyogenes) supplemented with glycerol 15% (v/v) at −80° C., and reactivated by isolation on LB (S. aureus) or BHI (S. pyogenes) agar plates. Strains were cultivated in Mueller Hinton (MH) Broth-cation adjusted (S. aureus) or BHI (S. pyogenes). All strains were cultivated aerobically (microaerobically for S. pyogenes strains) at 37° C.
Bacterial cultures were stopped in their exponential growth phase and plates were inoculated with the approximate concentration of 5×10^5 cells per well. Plates were incubated at 37° C. for 18 hours (S. aureus) or 24 hours (S. pyogenes).

## C/C(=C\C(=O)OCCCCCCCCC(=O)O)C[C@@H]1OC[C@H](C[C@@H]2O[C@H]2[C@@H](C)[C@H](C)O)[C@@H](O)[C@H]1O [Mupirocin]
ATCC29213, strain 9-1862936
  MIC: 0.25 µg/mL (≈ 0.499 µM)
ATCC29213, strain 9-2625962
  MIC: 0.5 µg/mL (≈ 0.999 µM)
ATCC29213, strain 9-2642158
  MIC: 0.25 µg/mL (≈ 0.499 µM)
ATCC29213, strain 9-2955245
  MIC: 0.25 µg/mL (≈ 0.499 µM)
ATCC29213, strain 9-26422166
  MIC: 0.25 µg/mL (≈ 0.499 µM)
ATCC29213, strain 000040C
  MIC: 0.25 µg/mL (≈ 0.499 µM)
ATCC29213, strain 000041C
  MIC: 0.25 µg/mL (≈ 0.499 µM)
ATCC29213, strain 000274T
  MIC: 0.5 µg/mL (≈ 0.999 µM)
ATCC29213, strain 114660U
  MIC: 0.25 µg/mL (≈ 0.499 µM)
ATCC29213, strain 115015T
  MIC: 0.5 µg/mL (≈ 0.999 µM)
ATCC29213, strain 115242C
  MIC: 0.25 µg/mL (≈ 0.499 µM)
ATCC29213, strain 115263C
  MIC: 0.25 µg/mL (≈ 0.499 µM)
ATCC29213, strain 115268C
  MIC: 0.5 µg/mL (≈ 0.999 µM)
ATCC29213, strain 115273C
  MIC: 0.25 µg/mL (≈ 0.499 µM)
ATCC29213, strain 115295C
  MIC: 0.25 µg/mL (≈ 0.499 µM)
ATCC29213, strain 115303C
  MIC: 0.25 µg/mL (≈ 0.499 µM)
ATCC29213, strain 115370U
  MIC: 0.125 µg/mL (≈ 0.25 µM)
ATCC29213, strain 115427C
  MIC: 0.25 µg/mL (≈ 0.499 µM)
ATCC29213, strain 115445C
  MIC: 0.25 µg/mL (≈ 0.499 µM)
ATCC29213, strain 115561C
  MIC: 0.5 µg/mL (≈ 0.999 µM)
ATCC29213, strain 115584D
  MIC: 0.5 µg/mL (≈ 0.999 µM)
ATCC29213, strain 115628T
  MIC: 0.25 µg/mL (≈ 0.499 µM)
ATCC29213, strain 115690C
  MIC: 0.125 µg/mL (≈ 0.25 µM)
ATCC29213, strain 115691T
  MIC: 0.25 µg/mL (≈ 0.499 µM)
ATCC29213, strain 115740E
  MIC: 0.25 µg/mL (≈ 0.499 µM)
ATCC29213, strain 115810E
  MIC: 0.25 µg/mL (≈ 0.499 µM)
ATCC29213, strain 115903T
  MIC: 0.5 µg/mL (≈ 0.999 µM)
ATCC29213, strain 116122T
  MIC: 0.5 µg/mL (≈ 0.999 µM)
ATCC29213, strain ATCC 29213
  MIC: 0.125 µg/mL (≈ 0.25 µM)
ATCC29213, strain E5-1029252
  MIC: 0.5 µg/mL (≈ 0.999 µM)
ATCC29213, strain E5-1029558
  MIC: 0.5 µg/mL (≈ 0.999 µM)
ATCC29213, strain E5-1030440
  MIC: 0.25 µg/mL (≈ 0.499 µM)
ATCC29213, strain E5-1030469
  MIC: 0.25 µg/mL (≈ 0.499 µM)
ATCC29213, strain E5-1030472
  MIC: 0.5 µg/mL (≈ 0.999 µM)
ATCC29213, strain E5-1030482
  MIC: 0.25 µg/mL (≈ 0.499 µM)
ATCC29213, strain E5-1033076 (first line, r202)
  MIC: 0.25 µg/mL (≈ 0.499 µM)
ATCC29213, strain E5-1033076 (second line, r203)
  MIC: 0.25 µg/mL (≈ 0.499 µM)
ATCC29213, strain E5-1033088
  MIC: 0.25 µg/mL (≈ 0.499 µM)
ATCC29213, strain E5-1033091
  MIC: 0.25 µg/mL (≈ 0.499 µM)
ATCC29213, strain E5-1035277
  MIC: 0.5 µg/mL (≈ 0.999 µM)
ATCC29213, strain E5-1035284
  MIC: 0.25 µg/mL (≈ 0.499 µM)
ATCC29213, strain E5-1035775
  MIC: 0.25 µg/mL (≈ 0.499 µM)
ATCC29213, strain E5-1035779
  MIC: 0.5 µg/mL (≈ 0.999 µM)
ATCC29213, strain E5-1037958
  MIC: 0.5 µg/mL (≈ 0.999 µM)
ATCC29213, strain E5-1037971
  MIC: 0.25 µg/mL (≈ 0.499 µM)
ATCC29213, strain E5-1038279
  MIC: 0.25 µg/mL (≈ 0.499 µM)
ATCC29213, strain E5-1038286
  MIC: 0.5 µg/mL (≈ 0.999 µM)
ATCC29213, strain E5-1038294
  MIC: 0.25 µg/mL (≈ 0.499 µM)
ATCC29213, strain E5-1039684
  MIC: 0.25 µg/mL (≈ 0.499 µM)
ATCC29213, strain E5-1039697
  MIC: 0.25 µg/mL (≈ 0.499 µM)
ATCC29213, strain E5-1041977
  MIC: 0.5 µg/mL (≈ 0.999 µM)
ATCC29213, strain E5-1041979
  MIC: 0.5 µg/mL (≈ 0.999 µM)
ATCC29213, strain E5-1041980
  MIC: 0.25 µg/mL (≈ 0.499 µM)
ATCC29213, strain E5-1041987
  MIC: 0.25 µg/mL (≈ 0.499 µM)
ATCC29213, strain E5-1043184
  MIC: 0.5 µg/mL (≈ 0.999 µM)
ATCC29213, strain E5-1043668
  MIC: 0.25 µg/mL (≈ 0.499 µM)
ATCC29213, strain E5-1045179
  MIC: 0.25 µg/mL (≈ 0.499 µM)
ATCC29213, strain E5-1046019
  MIC: 0.25 µg/mL (≈ 0.499 µM)
ATCC29213, strain E5-1046020
  MIC: 0.25 µg/mL (≈ 0.499 µM)
ATCC29213, strain E5-1046039
  MIC: 0.25 µg/mL (≈ 0.499 µM)
ATCC29213, strain E5-1046070
  MIC: 0.5 µg/mL (≈ 0.999 µM)
ATCC29213, strain E5-1046074
  MIC: 0.25 µg/mL (≈ 0.499 µM)
ATCC29213, strain E5-1046085
  MIC: 0.5 µg/mL (≈ 0.999 µM)
ATCC29213, strain E5-1046096
  MIC: 0.5 µg/mL (≈ 0.999 µM)
ATCC29213, strain E5-1046296
  MIC: 1 µg/mL (≈ 2 µM)
ATCC29213, strain E5-1046297
  MIC: 0.25 µg/mL (≈ 0.499 µM)
ATCC29213, strain E5-1046298
  MIC: 0.25 µg/mL (≈ 0.499 µM)
ATCC29213, strain E5-1046723
  MIC: 0.25 µg/mL (≈ 0.499 µM)
ATCC29213, strain E5-1047585
  MIC: 0.25 µg/mL (≈ 0.499 µM)
ATCC29213, strain E5-1047606
  MIC: 0.5 µg/mL (≈ 0.999 µM)
ATCC29213, strain E5-1047924
  MIC: 0.5 µg/mL (≈ 0.999 µM)
ATCC29213, strain E5-1048204
  MIC: 0.25 µg/mL (≈ 0.499 µM)
ATCC29213, strain E5-1048428
  MIC: 0.25 µg/mL (≈ 0.499 µM)
ATCC29213, strain E5-1048654
  MIC: 0.25 µg/mL (≈ 0.499 µM)
ATCC29213, strain E5-1048670
  MIC: 0.5 µg/mL (≈ 0.999 µM)
ATCC29213, strain EEFIC 01
  MIC: 0.125 µg/mL (≈ 0.25 µM)
ATCC29213, strain EEFIC 02
  MIC: 0.125 µg/mL (≈ 0.25 µM)
ATCC29213, strain K000772
  MIC: 0.125 µg/mL (≈ 0.25 µM)
ATCC29213, strain K000796
  MIC: 0.5 µg/mL (≈ 0.999 µM)
ATCC29213, strain K000863
  MIC: 0.5 µg/mL (≈ 0.999 µM)
ATCC29213, strain K000864
  MIC: 0.25 µg/mL (≈ 0.499 µM)
ATCC29213, strain K000866
  MIC: 0.5 µg/mL (≈ 0.999 µM)
ATCC29213, strain K115498
  MIC: 0.5 µg/mL (≈ 0.999 µM)
ATCC29213, strain K115688
  MIC: 0.25 µg/mL (≈ 0.499 µM)
ATCC29213, strain K115689
  MIC: 0.25 µg/mL (≈ 0.499 µM)
ATCC29213, strain R000019
  MIC: 0.5 µg/mL (≈ 0.999 µM)
ATCC29213, strain R000020
  MIC: 0.5 µg/mL (≈ 0.999 µM)
ATCC29213, strain R000024
  MIC: 0.5 µg/mL (≈ 0.999 µM)
ATCC29213, strain U115579
  MIC: 0.5 µg/mL (≈ 0.999 µM)
ATCC 29213 / MRSA, strain MRSA 01
  MIC: 0.25 µg/mL (≈ 0.499 µM)
ATCC 29213 / MRSA, strain MRSA 02
  MIC: 0.25 µg/mL (≈ 0.499 µM)
ATCC 29213 / MRSA, strain MRSA 03
  MIC: 0.25 µg/mL (≈ 0.499 µM)
ATCC 29213 / MRSA, strain MRSA 04
  MIC: 0.25 µg/mL (≈ 0.499 µM)
ATCC 29213 / MRSA, strain MRSA 05
  MIC: 0.125 µg/mL (≈ 0.25 µM)
ATCC 29213 / MRSA, strain MRSA 06
  MIC: 0.25 µg/mL (≈ 0.499 µM)
ATCC 29213 / MRSA, strain MRSA 07
  MIC: 0.25 µg/mL (≈ 0.499 µM)
ATCC 29213 / MRSA, strain MRSA 08
  MIC: > 16 µg/mL
ATCC 29213 / MRSA, strain MRSA 09
  MIC: 0.25 µg/mL (≈ 0.499 µM)
ATCC 29213 / MRSA, strain MRSA 10
  MIC: 0.25 µg/mL (≈ 0.499 µM)
ATCC 29213 / MRSA, strain MRSA 11
  MIC: 0.5 µg/mL (≈ 0.999 µM)
ATCC 29213 / MRSA, strain MRSA 12
  MIC: 0.125 µg/mL (≈ 0.25 µM)
ATCC 29213 / MRSA, strain MRSA 13
  MIC: 0.25 µg/mL (≈ 0.499 µM)
ATCC 29213 / MRSA, strain MRSA 14
  MIC: 0.125 µg/mL (≈ 0.25 µM)
